Assay results: patent US20250302394A1, “QUANTITATIVE MAGNETIC RESONANCE IMAGING AND TUMOR FORECASTING” (priority 2021, published 2025)
Values joined by “and” are separate entries in the source; they are usually repeats but may differ in a detail not shown here. Equal entries are not always repeated. Where two headings read alike, the source gives them in different places.

Tested on: TNBC

| Compound | median calibrated efficacy rate α of the drug (good-response patient (100% shrinkage of tumor volume at completion of A/C), Framework 1) [day⁻¹] | median calibrated efficacy rate α of the drug (poor-response patient (33% shrinkage of tumor volume at completion of A/C), Framework 1) [day⁻¹] | median calibrated efficacy rate α of the drug |
| --- | --- | --- | --- |
| COc1cccc2c1C(=O)c1c(O)c3c(c(O)c1C2=O)C[C@@](O)(C(=O)CO)C[C@@H]3O[C@H]1C[C@H](N)[C@H](O)[C@H](C)O1 [doxorubicin] | 0.47 | 0.24 | – |
| O=P1(N(CCCl)CCCl)NCCCO1 (stereo not drawn) [cyclophosphamide] | – | – | 0.60 day⁻¹ and 0.34 day⁻¹ |
